Here are results for 4 molecules from patent EP0532027B1, “Cyclic nitrones, their preparation and pharmaceutical compositions containing them” (MERRELL PHARMACEUTICALS INC., priority 1991, dated 1993).

One series has as its system myocardial tissues. The conditions noted are these: literature (Bolli et al); cited from earlier work.
For series [1], the system named is animal models of circulatory shock. The conditions noted are these: literature (Hamburger & McCay; Novelli et al.); cited from earlier work.
The test system of series [2] is gerbils. The conditions noted are these: literature (Floyd; Oliver et al; Phillis et al); versus control animals; cited from earlier work.
The subject of the next series is Interleukin-1. The series is described as follows: Blood levels of interleukin-1 in endotoxin-treated mice (ELISA). The note with it: mice given endotoxin and test compound, endotoxin alone 58.3, vehicle without endotoxin 29.2. The series is classed as in vivo, male Charles-Dawley mice. As for the experimental part:
Normal 7 week old male Charles-Dawley mice were utilized in the assay. The mice were injected with vehicle and a baseline blood level of IL-1 was established by an IL-1 specific ELISA ninety (90) minutes after administration. The animals were then administered both endotoxin and vehicle and a blood level of IL-1 was determined. Finally the animals were administered endotoxin and the test compound and the effect upon IL-1 blood levels was determined.
Background: In an ELISA, binding on a coated surface is turned into a signal by an enzyme label.

Series [3] concerns gerbils. Briefly: Gerbil model of stroke (cerebral ischemia/reperfusion). It is filed as in vivo. The note with it: for protective effect in gerbil model: 32 mg/kg, Figure V; for locomotor activity of ischemic gerbils: pretreated 30 minutes prior to ischemic event, Figure III. The source says: One of the primary therapeutic uses of pharmaceutical compositions containing these compounds will be in the treatment of stroke. Strokes are associated with cerebral ischemia. Initially, it was thought that the CNS damage that often accompanies a stroke was a direct result of the tissues being deprived of oxygen. Recent research has shown that most of the damage occurs when the tissues are reoxygenated during reperfusion. […] Gastroenterology, 82, 9-15 (1982). Oliver et al has shown that a significant amount of this damage occurs due to free oxygen radicals and the oxidation sequence which they initiate, Proc. Natl. Acad. Sci. USA, vol. 87, pp 5144-5147 July 1990. […] In this model the carotid arteries of gerbils are constricted surgically and after a predetermined period, the constriction is removed so that surrounding tissues may be reperfused. CNS damage, which occurs upon reperfusion, can be measured by the level of protein oxidation that occurs in the brain or by examining the gerbil's behavior. […] Oliver et al and Phillis et al have also shown similar results with PBN, supra and Neuroscience Letter, 116 (1990) 315-319.
The compound, 3,4-dihydro-3,3-dimethylisoquinoline N-oxide which was the product of Example I (hereinafter compound) was tested in a gerbil model as described above. The exact procedure utilized is described by Chandler et al. in Journal of Pharmacological Methods Vol. 14, pages 137-146 (1985). Figures I-V summarize the results that were obtained.
Figure I depicts the effect the compound had on the motor activity of non-ischemic gerbils.
Figure II depicts the effects that ischemia has upon the gerbils locomotor activity.
The gerbils were pretreated with the compound 30 minutes prior to initiation of the ischemic event.
Figure IV compares the neuronal loss of ischemic gerbils receiving various doses of compound with both control gerbils and non-ischemic gerbils.
All compounds were administered at 32 mg/kg. […] Compound A represents the product of Example I, F = Example III, and G = Example II.

The nature of series [4]: Inhibition of oxidation of soy PC liposome initiated with hydrogen peroxide and Fe2+ (thiobarbituric acid readout). The series is classed as biochemical. The note with it: amount required to inhibit 100% of oxidation of soy liposome over 15 minutes; 50uM H2O2, 50uM Fe2+, 37°C, pH 7.0. From the text: One such assay is based upon the fact that the lipid, soybean phosphatidylcholine, readily undergoes oxidation. This oxidation may be initiated by a variety of oxidizing agents such as Fe^2+ and H2O2, or 2,2'-azobis-(2-amidinopropane). A spin trapping agent will decrease the rate at which the lipid undergoes oxidation in this assay. This assay is described in detail in: a) Nilsson, U.A., Olsson, L-I, Carlin, G. and Bylund-Fellenius, A-C. (1989) Inhibition of lipid peroxidation by spin labels. Relationships between structure and function. J. Biol. Chem. 264:11131-11135; and b) Aust, S.D. (1985). Lipid peroxidation. In Handbook of Methods for Oxygen Radical Research. (Greenwald, R.A., ed.) CRC Press, Inc. Boca Raton, Florida, pp. 203-207.
Soybean phosphatidylcholine (PC) was obtained from commercial suppliers such as Sigma or Avanti Polar Lipids. The soy PC was dissolved in ethanol achieving a final concentration of 0.563mM. […]
The ability of a compound to inhibit oxidation of the soy PC liposome was evaluated in the following manner. […]
The samples were heated at 100°C for 20 minutes, cooled and centrifuged. The absorbance of the resulting supernatant was determined at 532-580nm. Quantitation of the thiobarbituric acid/oxidized PC complex was determined by comparison to a standard curve of malondialdehyde equivalents generated by acid catalysed hydrolysis of 1,1,3,3-tetraethoxypropane. […]

A short description of series [5]: Inhibition of oxidation of soy PC liposome by Fe2+/histidine-Fe3+ (thiobarbituric acid readout). It is filed as biochemical. The conditions noted are these: histidine/Fe3+ 250:50uM, initiated with 50 uM Fe2+; 15 minutes, 37°C.
For series [6], the system named is INTERLEUKIN-1 RELEASE BY HUMAN MACROPHAGES
Briefly: Inhibition of interleukin-1 release by endotoxin-stimulated human macrophages (ELISA). It is filed as cell-based. The conditions noted are these: Macrophage, two million macrophages stimulated with 20 nanograms endotoxin for 24 hours, IL-1 in supernatant. From the text: These include arthritis, psoriasis, athersclerosis, and diabetes. […] One such in-vitro assay is based upon the fact that when human macrophages are exposed to endotoxin, the macrophages secrete IL-1.
The in-vitro studies of IL-1 production was facilitated by a specific property of macrophages, i. e. attachment to non-self, e.g. plastic surface. In this assay, human peripheral blood monocyte-derived macrophages were enriched by plastic adherence. Two million of these macrophages were stimulated with 20 nanograms of endotoxin for 24 hours. Culture supernatants were then collected and the levels of IL-1 were assayed by enzyme-linked immuno-sorbent assay (ELISA). The same assay was repeated except that it was done in the presence of the test compound. The assay was repeated until an IC50 was calculated.

For a further series, the system named is ENDOTOXIN TREATED RATS. The series is described as follows: Animal model of septic shock: survival of endotoxin treated rats. It is filed as in vivo, Male Sprague Dawley rats. The note with it: 72 hours after endotoxin. Here is the method:
In this test rats were injected with endotoxin and a control survival rate was determined. Other groups of rats were pretreated with one of the compounds of Formula I at varied dosages and then administered endotoxin and the survival rates were compared. This test was conducted in the following manner. Male Sprague Dawley rats were utilized (weight 215g-300g) in each test group. Endotoxin (30mg/kg) was administered intraperitoneally (IP). A test compound or vehicle was administered IP 30 minutes prior to endotoxin administration. The following results were obtained: TABLE III

[7] abbreviates: dose 3 mg/kg IP 30 minutes prior to endotoxin (30mg/kg IP).
[8] abbreviates: dose 10 mg/kg IP 30 minutes prior to endotoxin (30mg/kg IP).
The mark [9] stands for this setting: dose 30 mg/kg IP 30 minutes prior to endotoxin (30mg/kg IP).

For the molecule `CC(C)(C)[N+]([O-])=Cc1ccccc1` [PBN, α-phenyl N-tert-butyl nitrone], in the series with myocardial tissues, the “myocardial dysfunction occurring after reperfusion” value is reported as “decreases the amount of myocardial dysfunction”. Besides, in [1], the “survival in animal models of circulatory shock” value is listed as “significantly increase survival”. For the same molecule, the “CNS damage in gerbil model of stroke” value in the series with gerbils [2] was “less CNS damage”.
As a reminder, the IC50 is the midpoint of a concentration-inhibition curve. Higher therefore signals weaker potency. Regarding `[O-][N+]1=Cc2ccccc2CC12CCCCC2` [Example II, Sprio [cyclohexane-1,3']-3,4-dihydroisoquinoline-N-oxide], the “IL-1 (picrogram/ml-serum)” value in the series on Interleukin-1 came out at 4.7 picrogram/ml-serum. Further, the “protective effect in gerbil model” value in the series on gerbils [3] is reported as “protective effect”. For the same molecule, the “IC100 Required to prevent Oxidation of Soybean Phosphatidylcholne by Fe^+2/H202” value in series [4] was 0.1 mM. In addition, the “IC100 Required to prevent Oxidation of Soybean Phosphatidylcholne by Fe^+2/histidine-Fe^3+” value in series [5] was 0.3 mM. Also, the IC50 in series [6] came to 200 µM. Further, in the series with ENDOTOXIN TREATED RATS (setting [7]), the “% Surviving” value is given as 30% and the “Survival Rate” value is reported as 3/10. Also, in the series on ENDOTOXIN TREATED RATS (setting [8]), the “% Surviving” value was determined as 91% and the “Survival Rate” value is given as 19/23.
For the molecule `CC1(C)Cc2ccccc2C=[N+]1[O-]` [Example I, 3,4-Dihydro-3,3-dimethylisoquinoline N-oxide], the “IL-1 (picrogram/ml-serum)” value in the series with Interleukin-1 was 6.4 picrogram/ml-serum. Moreover, the “locomotor activity of ischemic gerbils” value in the series with gerbils [3] (30mg/kg) and in the series on gerbils [3] (100mg/kg) was “significantly decreased” in each case. The “protective effect in gerbil model” value with gerbils [3] is recorded as “protective effect”. In the series on gerbils [3] (non-ischemic gerbils, Figure I), the “locomotor activity of non-ischemic gerbils” value is recorded as “no effect”. In the series on gerbils [3] (various doses, versus control and non-ischemic gerbils, Figure IV), the “neuronal loss of ischemic gerbils” value is recorded as “saved significant amounts of neuronal tissue”. The molecule also registered an IC50 in series [6] of 330 µM. Also, the “% Surviving” value with ENDOTOXIN TREATED RATS (setting [7]) stood at 33%; in the series with ENDOTOXIN TREATED RATS (setting [8]), 58%; in the series on ENDOTOXIN TREATED RATS (setting [9]), 83%. The results for the “Survival Rate” value with ENDOTOXIN TREATED RATS (setting [7]), in the series on ENDOTOXIN TREATED RATS (setting [8]) and with ENDOTOXIN TREATED RATS (setting [9]) were 4/12, 7/12 and 10/12, respectively.
Consider `[O-][N+]1=Cc2ccccc2CC12CCCC2` [Example III, Spiro [cyclopentane-1,3']-[1H]dihydroisoquinoline 2-oxide], for which the “IL-1 (picrogram/ml-serum)” value in the series on Interleukin-1 is 10.2 picrogram/ml-serum. Besides, the “protective effect in gerbil model” value in the series on gerbils [3] was “protective effect”. Also, the “IC100 Required to prevent Oxidation of Soybean Phosphatidylcholne by Fe^+2/H202” value in series [4] was 0.3 mM. In addition, the “IC100 Required to prevent Oxidation of Soybean Phosphatidylcholne by Fe^+2/histidine-Fe^3+” value in series [5] amounted to 0.7 mM. Moreover, inhibition in [6] was half-maximal at 100 µM (IC50). Further, in the series with ENDOTOXIN TREATED RATS (setting [8]), the “% Surviving” value turned out to be 17% and the “Survival Rate” value is on record as 2/12. Besides, in the series with ENDOTOXIN TREATED RATS (setting [9]), the “% Surviving” value is on record as 91% and the “Survival Rate” value was 10/11.
